Test results taken from US20250114367A1, “METHOD OF TREATING HAIR LOSS DISORDERS” (Sun Pharmaceutical Industries, Inc., priority 2023, published 2025).

Experiments:
Format in all cases: in vivo, human
[1] = system: adult subjects with moderate to severe AA; assay: Phase III trial: Patient Global Impression of Severity (PGI-S)
Protocol: The PGI-S was assessed by the subject and considered the severity of his/her alopecia areata at the time of assessment. The subject selected 1 of 7 numeric choices representing “Among the most extreme hair loss” to “Normal, no hair loss.” The definitions of the numeric choices is as follows: 1=normal, no hair loss; 2=borderline hair loss; 3=mild hair loss; 4=moderately hair loss; 5=marked hair loss; 6=severe hair loss; 7=among the most extreme hair loss.
(§1) A Phase III trial was conducted to assess the efficacy and safety of CTP-543 in adult subjects with moderate to severe AA. Approximately 440 adult male and female subjects 18 to 65 years of age, inclusive, with moderate to severe AA participated in the study. Subjects with definitive diagnosis of AA, and at least 50% hair loss, as defined by a SALT score ≥50, who met all of the inclusion criteria and none of the exclusion criteria participated in the study.
(§2) The Screening Period lasted up to 28 days prior to initiation of study drug. […] Randomization was stratified by scalp hair loss into 1 of the following 2 categories: 1) partial scalp hair loss (SALT ≥50 and <95), 2) complete or near complete scalp hair loss (SALT ≥95).
(§3) Additional secondary efficacy endpoints included the following: • Relative change in SALT scores from baseline at Weeks 4, 8, 12, 16, 20, and 24. • Percentage of responders (defined as “much improved” or “very much improved”) using the Clinical Global Impression of Improvement (CGI-I) at Weeks 12, 16, 20, and 24. • Percentage of responders (defined as “much improved” or “very much improved”) using the Patient Global Impression of Improvement (PGI-I) at Weeks 12, 16, 20, and 24. • Change from baseline in the Clinical Global Impression of Severity (CGI-S) at Weeks 12, 16, 20, and 24. • Change from baseline in the Patient Global Impression of Severity (PGI-S) at Weeks 12, 16, 20, and 24. • Change from baseline on the Brigham Eyebrow Tool for Alopecia (BETA) score at Weeks 12 and 24. • Change from baseline on the Brigham Eyelash Tool for Alopecia (BELA) score at Weeks 12 and 24. • Percentage of subjects achieving at least a 75% relative reduction in SALT score from baseline at Weeks 12 and 24. • Percentage of subjects achieving at least a 90% relative reduction in SALT score from baseline at Weeks 12 and 24. • Percentage of responders (defined as “satisfied” or “very satisfied”) on the SPRO scale at Weeks 12, 16, and 20. • Change from baseline in the SPRO scale at Weeks 12, 16, 20, and 24. • Percentage of subjects achieving a ≥2-point change from baseline in the SPRO scale at Weeks 12, 16, 20, and 24. • Change from baseline on the individual items of the Hair Quality Patient Reported Outcome (QPRO) scale at Weeks 12, 16, 20, and 24. • Change from baseline in the depression scale of the Hospital Anxiety and Depression Scale (HADS) at Week 24. • Change from baseline in the anxiety scale of the HADS at Week 24. • Percentage of subjects achieving an absolute SALT score of ≤20 at Week 4. • Percentage of subjects achieving an absolute SALT score of ≤10 at Week 24
A decrease from baseline indicates improvement (impression is decreased severity). The LS mean treatment group difference was in favor of the CTP-543 groups over the placebo group at all timepoints evaluated. […] Detailed data for each time point are described below.

[2] = system: adult subjects with moderate to severe AA; assay: Phase III trial: Clinical Global Impression of Severity (CGI-S)
Protocol: The CGI-S was assessed by the investigator and considered the severity of the subject's alopecia at the time of assessment. The investigator selected 1 of 7 numeric choices representing “Among the most extreme hair loss” to “Normal, no hair loss.” To reduce variability, 1 rater was to perform the CGI-S assessment for the subject. The definitions of the numeric choices is as follows: 1=normal, no hair loss; 2=borderline hair loss; 3=mild hair loss; 4=moderately hair loss; 5=marked hair loss; 6=severe hair loss; 7=among the most extreme hair loss.
as §1, §2, §3
A decrease in CGI-I score indicates improvement (impression is decreased severity). Similar to other endpoints, decreases favoring the active group over placebo were observed beginning at Week 12 and continuing through Week 24, and the magnitude of the differences increased at each subsequent time point. […] Detailed data for each time point are described below.

[3] = system: adult subjects with moderate to severe AA; assay: Phase III trial: Clinical Global Impression of Improvement (CGI-I); details: non-missing data
Protocol: The CGI-I was assessed by the investigator. Compared to the subject's alopecia areata prior to treatment at baseline, the subject's current state of alopecia areata was assessed according to the investigator's perceived change. The investigator selected 1 of 7 numeric choices representing “Very Much Worse” to “Very Much Improved.” To reduce variability, 1 rater was to perform the CGI-I assessment for the subject for the duration of the study.
as §1, §2, §3
Subjects with responses of “very much improved” or “much improved” were considered CGI-I responders. […] Detailed data are described below. At each visit, the percentage of CGI-I responders (non-missing data) was as follows: […]

[4] = system: adult subjects with moderate to severe AA; assay: Phase III trial: Patient Global Impression of Improvement (PGI-I); details: non-missing data
Protocol: The PGI-I was assessed by the subject. Compared to the subject's AA prior to treatment at baseline, the subject's current state of AA was assessed according to his/her perceived change. The subject selected 1 of 7 numeric choices representing “Very Much Worse” to “Very Much Improved.” If a subject was unable to attend an in-person clinic visit due to COVID-19, the PGI-I was to be performed via a virtual visit with video capability.
as §1, §2, §3
Detailed data are described below.

Structure (SMILES): [2H]C1([2H])C([C@@H](CC#N)n2cc(-c3ncnc4[nH]ccc34)cn2)C([2H])([2H])C([2H])([2H])C1([2H])[2H] [CTP-543, (R)-3-(4-(7H-pyrrolo[2,3-d]pyrimidin-4-yl)-1H-pyrazol-1-yl)-3-(cyclopentyl-2,2,3,3,4,4,5,5-d8) propanenitrile]
- PGI-S, LS mean change from baseline ([1]; Week 12, 8 mg BID): −1.6
- PGI-S, LS mean change from baseline ([1]; Week 12, 12 mg BID): −1.8
- PGI-S, LS mean change from baseline ([1]; Week 16, 12 mg BID): −2.0
- PGI-S, LS mean change from baseline ([1]; Week 20, 8 mg BID): −2.0
- PGI-S, LS mean change from baseline ([1]; Week 20, 12 mg BID): −2.2
- PGI-S, LS mean change from baseline ([1]; Week 24, 8 mg BID): −2.2
- PGI-S, LS mean change from baseline ([1]; Week 24, 12 mg BID): −2.5
- CGI-S, LS mean change from baseline ([2]; Week 12, 8 mg BID): −1.3
- CGI-S, LS mean change from baseline ([2]; Week 12, 12 mg BID): −1.4
- CGI-S, LS mean change from baseline ([2]; Week 16, 12 mg BID): −1.8
- CGI-S, LS mean change from baseline ([2]; Week 20, 8 mg BID): −1.8
- CGI-S, LS mean change from baseline ([2]; Week 20, 12 mg BID): −2.1
- CGI-S, LS mean change from baseline ([2]; Week 24, 8 mg BID): −2.1
- CGI-S, LS mean change from baseline ([2]; Week 24, 12 mg BID): −2.4
- percentage of CGI-I responders (very much improved or much improved) ([3]; Week 24, 8 mg BID): 54.1%
- percentage of CGI-I responders (very much improved or much improved) ([3]; Week 24, 12 mg BID): 61.7%
- percentage of CGI-I responders (very much improved or much improved) ([3]; week 12, 8 mg BID): 38.0%
- percentage of CGI-I responders (very much improved or much improved) ([3]; week 12, 12 mg BID): 44.3%
- percentage of CGI-I responders (very much improved or much improved) ([3]; week 16, 8 mg BID): 45.0%
- percentage of CGI-I responders (very much improved or much improved) ([3]; week 16, 12 mg BID): 52.0%
- percentage of CGI-I responders (very much improved or much improved) ([3]; week 20, 8 mg BID): 50.0%
- percentage of CGI-I responders (very much improved or much improved) ([3]; week 20, 12 mg BID): 9.0%
- percentage of PGI-I responders (very much improved or much improved) ([4]; Week 24, 8 mg BID): 50.9%
- percentage of PGI-I responders (very much improved or much improved) ([4]; Week 24, 12 mg BID): 68.3%
- percentage of PGI-I responders (very much improved or much improved) ([4]; week 12, 8 mg BID): 43.3%
- percentage of PGI-I responders (very much improved or much improved) ([4]; week 12, 12 mg BID): 49.2%
- percentage of PGI-I responders (very much improved or much improved) ([4]; week 16, 8 mg BID): 46.2%
- percentage of PGI-I responders (very much improved or much improved) ([4]; week 16, 12 mg BID): 59.8%
- percentage of PGI-I responders (very much improved or much improved) ([4]; week 20, 8 mg BID): 48.7%
- percentage of PGI-I responders (very much improved or much improved) ([4]; week 20, 12 mg BID): 64.4%
